Laboratory results: the supplement of paper PMC6045584
± gives the standard deviation of the averaged measurements.

compound: CO[C@H]1C[C@@H]2CC[C@@H](C)[C@@](O)(O2)C(=O)C(=O)N2CCCC[C@H]2C(=O)O[C@H]([C@H](C)C[C@@H]2CC[C@@H](OCCO)[C@H](OC)C2)CC(=O)[C@H](C)/C=C(\C)[C@@H](O)[C@@H](OC)C(=O)[C@H](C)C[C@H](C)/C=C/C=C/C=C/1C [EVEROLIMUS]; experiment: surviving fraction relative to DMSO-only wells; higher = less growth inhibition; conditions: 0.5 nM; exposure time: 5 days
Procedure, shortened: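 Luminescence normalised to the median of DMSO-only wells defines surviving fraction, with viability read by CellTiter-Glo. Signal was recorded after 10 minutes at room temperature, once log-phase tumour cell lines seeded at 250–500 cells per well in 384-well plates had spent 24 hours settling and then five days under continuous exposure to inhibitors at 0.5, 1, 5, 10, 50, 100, 500 and 1000 nM.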

Row | Test System | surviving fraction
1 | MDAMB231 BREAST | 0.779 ± 0.021
2 | MDAMB361 BREAST | 0.739 ± 0.061
3 | MDAMB436 BREAST | 0.7 ± 0.022
4 | MDAMB453 BREAST | 0.941 ± 0.11
5 | MDAMB468 BREAST | 0.759 ± 0.076
6 | MFM223 BREAST | 0.953 ± 0.069
7 | MG63 BONE | 0.954 ± 0.019
8 | MHM BONE | 0.926 ± 0.063
9 | NCIH441 LUNG | 1.15 ± 0.031
10 | NOS1 BONE | 0.77 ± 0.073
11 | NY BONE | 0.789 ± 0.012
12 | OS25HAL BONE | 0.863 ± 0.044
13 | OSHN BONE | 1.06 ± 0.014
14 | PCI30 HEADNECK | 0.715 ± 0.07
15 | RDES SOFT TISSUE | 1.09 ± 0.067
16 | S68 BREAST | 0.839 ± 0.17
17 | SAOS2 BONE | 1.13 ± 0.094
18 | SCC36 HEADNECK | 1.07 ± 0.056
19 | SCC47 HEADNECK | 1.02 ± 0.053
20 | SCC90 HEADNECK | 0.857 ± 0.032

Row | Test System | surviving fraction
21 | SG27 HEADNECK | 1.1 ± 0.11
22 | SG28 HEADNECK | 1.15 ± 0.028
23 | SG31 HEADNECK | 0.931 ± 0.077
24 | SG32 HEADNECK | 1.22 ± 0.19
25 | SG43 HEADNECK | 1.18 ± 0.069
26 | SIHA CERVIX | 0.822 ± 0.043
27 | SJSA1 BONE | 1.58 ± 0.029
28 | SKBR3 BREAST | 0.615 ± 0.048
29 | SNU475 LIVER | 0.489 ± 0.032
30 | SUM44 BREAST | 0.853 ± 0.24
31 | SUM149 BREAST | 0.844 ± 0.035
32 | SUM149.B1*.S BREAST | 1.11 ± 0.032
33 | SUM159 BREAST | 1.08 ± 0.023
34 | SYO1 SYNOVIAL | 0.8921 ± 0.0089
35 | T47D BREAST | 0.892 ± 0.044
36 | U2OS BONE | 0.954 ± 0.025
37 | VCAP PROSTATE | 1.04 ± 0.079
38 | VP229 BREAST | 0.812 ± 0.056
39 | YAMATO SYNOVIAL | 1.07 ± 0.084
40 | ZR751 BREAST | 0.964 ± 0.017

same assay, conditions: 1 nM; exposure time: 5 days

Row | Test System | surviving fraction
41 | MDAMB231 BREAST | 0.73 ± 0.028
42 | MDAMB361 BREAST | 0.815 ± 0.098
43 | MDAMB436 BREAST | 0.655 ± 0.044
44 | MDAMB453 BREAST | 0.75 ± 0.07
45 | MDAMB468 BREAST | 0.669 ± 0.043
46 | MFM223 BREAST | 0.912 ± 0.077
47 | MG63 BONE | 0.8723 ± 0.0081
48 | MHM BONE | 0.864 ± 0.049
49 | NCIH441 LUNG | 1.08 ± 0.098
50 | NOS1 BONE | 0.655 ± 0.039
51 | NY BONE | 0.766 ± 0.024
52 | OS25HAL BONE | 0.846 ± 0.0091
53 | OSHN BONE | 1.03 ± 0.038
54 | PCI30 HEADNECK | 0.6 ± 0.029
55 | RDES SOFT TISSUE | 1.1 ± 0.099
56 | S68 BREAST | 0.547 ± 0.045
57 | SAOS2 BONE | 1.12 ± 0.054
58 | SCC36 HEADNECK | 1.09 ± 0.14
59 | SCC47 HEADNECK | 1 ± 0.017
60 | SCC90 HEADNECK | 0.816 ± 0.08

Row | Test System | surviving fraction
61 | SG27 HEADNECK | 1.02 ± 0.019
62 | SG28 HEADNECK | 1.09 ± 0.026
63 | SG31 HEADNECK | 0.905 ± 0.11
64 | SG32 HEADNECK | 1.22 ± 0.15
65 | SG43 HEADNECK | 0.963 ± 0.053
66 | SIHA CERVIX | 0.741 ± 0.04
67 | SJSA1 BONE | 1.72 ± 0.099
68 | SKBR3 BREAST | 0.561 ± 0.009
69 | SNU475 LIVER | 0.447 ± 0.028
70 | SUM44 BREAST | 0.723 ± 0.16
71 | SUM149 BREAST | 0.671 ± 0.098
72 | SUM149.B1*.S BREAST | 1.06 ± 0.034
73 | SUM159 BREAST | 1.09 ± 0.024
74 | SYO1 SYNOVIAL | 0.834 ± 0.011
75 | T47D BREAST | 0.815 ± 0.047
76 | U2OS BONE | 0.88 ± 0.039
77 | VCAP PROSTATE | 1.04 ± 0.052
78 | VP229 BREAST | 0.664 ± 0.048
79 | YAMATO SYNOVIAL | 1.06 ± 0.074
80 | ZR751 BREAST | 0.715 ± 0.031

same assay, conditions: 5 nM; exposure time: 5 days

Row | Test System | surviving fraction
81 | MDAMB231 BREAST | 0.621 ± 0.029
82 | MDAMB361 BREAST | 0.697 ± 0.0076
83 | MDAMB436 BREAST | 0.598 ± 0.027
84 | MDAMB453 BREAST | 0.461 ± 0.0079
85 | MDAMB468 BREAST | 0.599 ± 0.031
86 | MFM223 BREAST | 0.73 ± 0.049
87 | MG63 BONE | 0.747 ± 0.027
88 | MHM BONE | 0.743 ± 0.057
89 | NCIH441 LUNG | 1.183 ± 0.0021
90 | NOS1 BONE | 0.607 ± 0.022
91 | NY BONE | 0.729 ± 0.01
92 | OS25HAL BONE | 0.679 ± 0.029
93 | OSHN BONE | 0.991 ± 0.035
94 | PCI30 HEADNECK | 0.52 ± 0.027
95 | RDES SOFT TISSUE | 1.11 ± 0.039
96 | S68 BREAST | 0.479 ± 0.048
97 | SAOS2 BONE | 1.0323 ± 0.00058
98 | SCC36 HEADNECK | 1.03 ± 0.018
99 | SCC47 HEADNECK | 1.01 ± 0.053
100 | SCC90 HEADNECK | 0.68 ± 0.048

Row | Test System | surviving fraction
101 | SG27 HEADNECK | 0.978 ± 0.07
102 | SG28 HEADNECK | 0.879 ± 0.063
103 | SG31 HEADNECK | 0.638 ± 0.041
104 | SG32 HEADNECK | 1.44 ± 0.47
105 | SG43 HEADNECK | 0.943 ± 0.035
106 | SIHA CERVIX | 0.64 ± 0.02
107 | SJSA1 BONE | 1.5 ± 0.24
108 | SKBR3 BREAST | 0.414 ± 0.021
109 | SNU475 LIVER | 0.41 ± 0.042
110 | SUM44 BREAST | 0.718 ± 0.12
111 | SUM149 BREAST | 0.536 ± 0.068
112 | SUM149.B1*.S BREAST | 1.04 ± 0.039
113 | SUM159 BREAST | 0.921 ± 0.047
114 | SYO1 SYNOVIAL | 0.661 ± 0.016
115 | T47D BREAST | 0.686 ± 0.041
116 | U2OS BONE | 0.7943 ± 0.0025
117 | VCAP PROSTATE | 0.941 ± 0.1
118 | VP229 BREAST | 0.645 ± 0.086
119 | YAMATO SYNOVIAL | 1.06 ± 0.02
120 | ZR751 BREAST | 0.502 ± 0.054

same assay, conditions: 10 nM; exposure time: 5 days

Row | Test System | surviving fraction
121 | MDAMB231 BREAST | 0.5901 ± 0.005
122 | MDAMB361 BREAST | 0.631 ± 0.049
123 | MDAMB436 BREAST | 0.606 ± 0.039
124 | MDAMB453 BREAST | 0.369 ± 0.037
125 | MDAMB468 BREAST | 0.546 ± 0.045
126 | MFM223 BREAST | 0.749 ± 0.082
127 | MG63 BONE | 0.6393 ± 0.0057
128 | MHM BONE | 0.696 ± 0.059
129 | NCIH441 LUNG | 1.04 ± 0.049
130 | NOS1 BONE | 0.536 ± 0.048
131 | NY BONE | 0.688 ± 0.019
132 | OS25HAL BONE | 0.622 ± 0.042
133 | OSHN BONE | 0.983 ± 0.026
134 | PCI30 HEADNECK | 0.508 ± 0.02
135 | RDES SOFT TISSUE | 1.11 ± 0.087
136 | S68 BREAST | 0.434 ± 0.049
137 | SAOS2 BONE | 0.943 ± 0.044
138 | SCC36 HEADNECK | 0.899 ± 0.061
139 | SCC47 HEADNECK | 0.95 ± 0.024
140 | SCC90 HEADNECK | 0.643 ± 0.028

Row | Test System | surviving fraction
141 | SG27 HEADNECK | 1.01 ± 0.046
142 | SG28 HEADNECK | 0.8505 ± 0.005
143 | SG31 HEADNECK | 0.62 ± 0.01
144 | SG32 HEADNECK | 1.01 ± 0.14
145 | SG43 HEADNECK | 0.833 ± 0.13
146 | SIHA CERVIX | 0.973 ± 0.61
147 | SJSA1 BONE | 1.63 ± 0.07
148 | SKBR3 BREAST | 0.389 ± 0.015
149 | SNU475 LIVER | 0.364 ± 0.018
150 | SUM44 BREAST | 0.713 ± 0.12
151 | SUM149 BREAST | 0.523 ± 0.079
152 | SUM149.B1*.S BREAST | 0.754 ± 0.082
153 | SUM159 BREAST | 0.851 ± 0.04
154 | SYO1 SYNOVIAL | 0.602 ± 0.036
155 | T47D BREAST | 0.637 ± 0.021
156 | U2OS BONE | 0.706 ± 0.039
157 | VCAP PROSTATE | 0.984 ± 0.032
158 | VP229 BREAST | 0.566 ± 0.051
159 | YAMATO SYNOVIAL | 0.633 ± 0.022
160 | ZR751 BREAST | 0.5 ± 0.068
